Test system: p53 phosphorylation
Assay: Immunoprecipitation of [32P]-labelled p53 from A549 cells
Type: cell-based, human
Details: six hours, 100 nM dexamethasone or 300 nM ISIS 15534
Protocol: Immunoprecipitation of p53 protein. A549 cells were cultured in 60 mm dishes until the cell cultures were about 80% confluent, washed with PBS and placed for 1 hour in phosphate-free DMEM containing 5% fetal bovine serum. The cell cultures were then treated with 100 nM dexamethasone or 300 nM ISIS 15521 or ISIS 15534 as described previously (Zuo et al. 1998), three dishes per group, and [^32 P] phosphate (0.2 mCi/ml) was added to the media. Six hours after treatment, the cells were collected, washed with ice-cold PBS and stored at -80° C. prior to analysis. […]
Referring to FIGS. 2A-2C, Northern blot analysis of 549 cells following treatment with dexamethasone and/or ISIS 15534 is shown. […] After 24 hours, 20 μg of total RNA was prepared and analyzed for serine/threonine protein phosphatase 5 (PP5), p21^Waf1/Cip1 (p21), and serum/glucocorticoid inducible kinase (sgk) mRNA levels. […] Six hours later, the protein extracts were prepared, and changes in p53 phosphorylation were determined by immunoprecipitation, SDS-PAGE analysis, and visualized by autoradiography (Control, p53 from control cells; ISIS 15534, p53 from cells treated with 500 nM ISIS 15534; Dex, p53 from cells treated with 100 nM dexamethasone).Referring to FIG. 2E, a Western analysis of an Immobilon membrane produced by the transfer of protein from the SDS-PAGE gel and detected with an anti-p53 mouse monoclonal antibody is shown.

C[C@@H]1C[C@H]2[C@@H]3CCC4=CC(=O)C=C[C@]4(C)[C@@]3(F)[C@@H](O)C[C@]2(C)[C@@]1(O)C(=O)CO [dexamethasone, reference compound]
Phosphorylation of p53: hyperphosphorylation of p53

From patent US6235891A, “Glucocorticoid receptor agonist and decreased PP5” (South Alabama Medical Science Foundation, priority 1999, dated 2001)
